Values joined by “and” are separate entries in the source; they are usually repeats but may differ in a detail not shown here. Identical values can stand only once. Inconclusive results and toxic doses are left out.
Tested on: CD2F1 mice, L1210 leukemia ip, survival T/C
Assay: NCI In Vivo Anticancer Drug Screen. Data for tumor model L1210 Leukemia (intraperitoneal) in CD2F1 (CDF1) mice
Conditions: higher = longer survival
Outline: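 Implant tumor; dose compound or vehicle; measure endpoint in both groups; report treated divided by control.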

[1] = endpoint: mean survival time, dose: 100.0 mg/kg/injection, schedule: Q01DX009 (ip), vehicle: saline
[2] = endpoint: mean survival time, dose: 200.0 mg/kg/injection, schedule: Q01DX009 (ip), vehicle: saline
[3] = endpoint: mean survival time, dose: 100.0 mg/kg/injection, schedule: Q04DX003 (ip), vehicle: saline with Tween-80
[4] = endpoint: mean survival time, dose: 200.0 mg/kg/injection, schedule: Q04DX003 (ip), vehicle: saline with Tween-80
[5] = endpoint: mean survival time, dose: 400.0 mg/kg/injection, schedule: Q04DX003 (ip), vehicle: saline with Tween-80
[6] = endpoint: mean survival time, dose: 25.0 mg/kg/injection, schedule: Q04DX002 (ip), vehicle: saline with Tween-80
[7] = endpoint: mean survival time, dose: 50.0 mg/kg/injection, schedule: Q04DX002 (ip), vehicle: saline with Tween-80
[8] = endpoint: mean survival time, dose: 100.0 mg/kg/injection, schedule: Q04DX002 (ip), vehicle: saline with Tween-80
[9] = endpoint: mean survival time, dose: 200.0 mg/kg/injection, schedule: Q04DX002 (ip), vehicle: saline with Tween-80
[10] = endpoint: mean survival time, dose: 400.0 mg/kg/injection, schedule: Q04DX002 (ip), vehicle: saline with Tween-80

CCN(CC)CC(=O)O[C@]1(CC)C(=O)OCc2c1cc1n(c2=O)Cc2cc3ccccc3nc2-1
T/C (endpoint: median survival time, dose: 1.0 mg/kg/injection, schedule: Q01DX009 (ip), vehicle: water): 124 % of control and 109 % of control | T/C (endpoint: median survival time, dose: 3.75 mg/kg/injection, schedule: Q04DX002 (ip), vehicle: water): 114 % of control and 109 % of control | T/C (endpoint: median survival time, dose: 3.75 mg/kg/injection, schedule: Q04HX004 (iv), vehicle: other): 150 % of control | T/C (endpoint: median survival time, dose: 4.0 mg/kg/injection, schedule: Q01DX009 (ip), vehicle: water): 154 % of control and 163 % of control | T/C (endpoint: median survival time, dose: 7.5 mg/kg/injection, schedule: Q04DX002 (ip), vehicle: water): 124 % of control | T/C (endpoint: median survival time, dose: 7.5 mg/kg/injection, schedule: Q04HX004 (iv), vehicle: dextrose): 183 % of control | T/C (endpoint: median survival time, dose: 7.5 mg/kg/injection, schedule: Q04HX004 (iv), vehicle: other): 175 % of control | T/C (endpoint: median survival time, dose: 8.0 mg/kg/injection, schedule: Q01DX009 (ip), vehicle: water): 113 % of control | T/C (endpoint: median survival time, dose: 15.0 mg/kg/injection, schedule: Q04DX002 (ip), vehicle: water): 157 % of control | T/C (endpoint: median survival time, dose: 15.0 mg/kg/injection, schedule: Q04HX004 (iv), vehicle: dextrose): 218 % of control | T/C (endpoint: median survival time, dose: 15.0 mg/kg/injection, schedule: Q04HX004 (iv), vehicle: other): 203 % of control | T/C (endpoint: median survival time, dose: 30.0 mg/kg/injection, schedule: Q04DX002 (ip), vehicle: water): 223 % of control and 256 % of control | T/C (endpoint: median survival time, dose: 30.0 mg/kg/injection, schedule: Q04HX004 (iv), vehicle: dextrose): 204 % of control | T/C (endpoint: median survival time, dose: 30.0 mg/kg/injection, schedule: Q04HX004 (iv), vehicle: other): 268 % of control

O=C1CCCCC1CNCc1ccccc1 (configuration not stated)
T/C (endpoint: mean survival time, dose: 75.0 mg/kg/injection, schedule: Q01DX001 (ip), vehicle: saline): 102 % of control | T/C (endpoint: mean survival time, dose: 150.0 mg/kg/injection, schedule: Q01DX001 (ip), vehicle: saline): 93 % of control

C1CNCOC1
T/C (endpoint: mean survival time, dose: 6.25 mg/kg/injection, schedule: Q01DX009 (ip), vehicle: saline): 100 % of control | T/C (endpoint: mean survival time, dose: 12.5 mg/kg/injection, schedule: Q01DX009 (ip), vehicle: saline): 95 % of control and 97 % of control | T/C (endpoint: mean survival time, dose: 25.0 mg/kg/injection, schedule: Q01DX009 (ip), vehicle: saline): 100 % of control and 102 % of control | T/C (endpoint: mean survival time, dose: 50.0 mg/kg/injection, schedule: Q01DX009 (ip), vehicle: saline): 101 % of control and 110 % of control | T/C [1]: 106 % of control and 107 % of control | T/C [2]: 100 % of control | T/C (endpoint: median survival time, dose: 6.25 mg/kg/injection, schedule: Q01DX009 (ip), vehicle: saline): 100 % of control | T/C (endpoint: median survival time, dose: 12.5 mg/kg/injection, schedule: Q01DX009 (ip), vehicle: saline): 102 % of control | T/C (endpoint: median survival time, dose: 25.0 mg/kg/injection, schedule: Q01DX009 (ip), vehicle: saline): 107 % of control | T/C (endpoint: median survival time, dose: 50.0 mg/kg/injection, schedule: Q01DX009 (ip), vehicle: saline): 107 % of control | T/C (endpoint: median survival time, dose: 100.0 mg/kg/injection, schedule: Q01DX009 (ip), vehicle: saline): 112 % of control

Cc1nc2[nH]c(=S)[nH]c(=O)c2nc1C
T/C [3]: 97 % of control | T/C [4]: 90 % of control | T/C [5]: 90 % of control

CCOC(=O)C(S(C)(=O)=O)S(C)(=O)=O
T/C (endpoint: mean survival time, dose: 75.0 mg/kg/injection, schedule: Q01DX001 (ip), vehicle: saline with Tween-80): 97 % of control | T/C (endpoint: mean survival time, dose: 150.0 mg/kg/injection, schedule: Q01DX001 (ip), vehicle: saline with Tween-80): 108 % of control | T/C (endpoint: mean survival time, dose: 300.0 mg/kg/injection, schedule: Q01DX001 (ip), vehicle: saline with Tween-80): 98 % of control

CC[N-]c1nncs1.CC[N-]c1nncs1.CC[N-]c1nncs1.CC[N-]c1nncs1.[Cl][Rh][Cl]
T/C (endpoint: mean survival time, dose: 3.13 mg/kg/injection, schedule: Q04DX003 (ip), vehicle: distilled water + Tween-80): 104 % of control | T/C (endpoint: mean survival time, dose: 6.25 mg/kg/injection, schedule: Q04DX003 (ip), vehicle: distilled water + Tween-80): 98 % of control | T/C (endpoint: mean survival time, dose: 12.5 mg/kg/injection, schedule: Q04DX003 (ip), vehicle: distilled water + Tween-80): 96 % of control | T/C (endpoint: mean survival time, dose: 25.0 mg/kg/injection, schedule: Q04DX003 (ip), vehicle: distilled water + Tween-80): 90 % of control | T/C (endpoint: mean survival time, dose: 50.0 mg/kg/injection, schedule: Q04DX003 (ip), vehicle: distilled water + Tween-80): 98 % of control

O=C1CCC(=O)N1CO
T/C [1]: 102 % of control | T/C (endpoint: mean survival time, dose: 100.0 mg/kg/injection, schedule: Q04DX003 (ip), vehicle: saline): 106 % of control | T/C [2]: 109 % of control | T/C (endpoint: mean survival time, dose: 200.0 mg/kg/injection, schedule: Q04DX003 (ip), vehicle: saline): 101 % of control | T/C (endpoint: mean survival time, dose: 400.0 mg/kg/injection, schedule: Q01DX009 (ip), vehicle: saline): 111 % of control | T/C (endpoint: mean survival time, dose: 400.0 mg/kg/injection, schedule: Q04DX003 (ip), vehicle: saline): 116 % of control

C=CC(C)(C)S(=O)[O-].[C-]#[O+].[C-]#[O+].[C-]#[O+].[Mn].[c-]1[c-][c-][cH-][c-]1
T/C [6]: 93 % of control | T/C [7]: 86 % of control | T/C [8]: 93 % of control

C1CSCCSCCCSCCSC1
T/C [7]: 96 % of control | T/C [8]: 108 % of control | T/C [9]: 101 % of control

Cc1onc(-c2ccccc2)c1C1=N/C(=C\c2ccc(N(C)C)cc2)C(=O)O1
T/C [8]: 94 % of control | T/C [9]: 113 % of control | T/C [10]: 90 % of control

COc1cccc2c1C(=O)c1c(O)c3c(c(O)c1C2=O)C[C@@](O)(C(=O)CSc1ccccc1)C[C@@H]3OC1CC(N)C(O)C(C)O1 (some centres not stated)
T/C (endpoint: mean survival time, dose: 0.78 mg/kg/injection, schedule: Q01DX009 (ip), vehicle: water): 107 % of control | T/C (endpoint: mean survival time, dose: 1.56 mg/kg/injection, schedule: Q01DX009 (ip), vehicle: water): 106 % of control | T/C (endpoint: mean survival time, dose: 3.13 mg/kg/injection, schedule: Q01DX009 (ip), vehicle: water): 101 % of control | T/C (endpoint: mean survival time, dose: 6.25 mg/kg/injection, schedule: Q01DX009 (ip), vehicle: water): 106 % of control | T/C (endpoint: mean survival time, dose: 12.5 mg/kg/injection, schedule: Q01DX009 (ip), vehicle: water): 101 % of control

O=C1C(Cl)(Cl)C(=O)C(Cl)(Cl)C(=O)C1(Cl)Cl
T/C [6]: 97 % of control | T/C [7]: 94 % of control

CCCCCCCCCCCCCCCCN(C)S(=O)(=O)c1cccc(S(=O)(=O)F)c1
T/C [3]: 95 % of control | T/C [4]: 101 % of control | T/C [5]: 102 % of control

CC(=O)N(C)O
T/C (endpoint: median survival time, dose: 12.5 mg/kg/injection, schedule: Q01DX009 (ip), vehicle: saline with Tween-80): 102 % of control | T/C (endpoint: median survival time, dose: 25.0 mg/kg/injection, schedule: Q01DX009 (ip), vehicle: saline with Tween-80): 102 % of control and 103 % of control | T/C (endpoint: median survival time, dose: 50.0 mg/kg/injection, schedule: Q01DX009 (ip), vehicle: saline with Tween-80): 102 % of control and 103 % of control | T/C (endpoint: median survival time, dose: 100.0 mg/kg/injection, schedule: Q01DX009 (ip), vehicle: saline with Tween-80): 106 % of control | T/C (endpoint: median survival time, dose: 200.0 mg/kg/injection, schedule: Q01DX009 (ip), vehicle: saline with Tween-80): 156 % of control | T/C (endpoint: median survival time, dose: 400.0 mg/kg/injection, schedule: Q01DX009 (ip), vehicle: saline with Tween-80): 176 % of control

CCCCCC[C@@H](O)[C@@H]1C2=C(C[C@H]([C@H](O)[C@@H]3CC=CC(=O)O3)CC3=C(C(=O)OC3=O)[C@@H]1O)C(=O)OC2=O
T/C (endpoint: mean survival time, dose: 0.13 mg/kg/injection, schedule: Q01DX001 (ip), vehicle: saline): 97 % of control | T/C (endpoint: mean survival time, dose: 0.25 mg/kg/injection, schedule: Q01DX001 (ip), vehicle: saline): 95 % of control | T/C (endpoint: mean survival time, dose: 0.5 mg/kg/injection, schedule: Q01DX001 (ip), vehicle: saline): 96 % of control | T/C (endpoint: mean survival time, dose: 1.0 mg/kg/injection, schedule: Q01DX001 (ip), vehicle: saline): 96 % of control | T/C (endpoint: mean survival time, dose: 2.0 mg/kg/injection, schedule: Q01DX001 (ip), vehicle: saline): 96 % of control

Oc1ccccc1C=NC1CCCCC1N=Cc1ccccc1O.[Cu] (configuration not stated)
T/C [8]: 88 % of control | T/C [9]: 88 % of control | T/C [10]: 91 % of control

O=c1[nH]cnc2c1nc(N1CCCC1)n2C1OC(CO)C(O)C1O (configuration not stated)
T/C (endpoint: mean survival time, dose: 12.5 mg/kg/injection, schedule: Q01DX005 (ip), vehicle: distilled water + Tween-80): 102 % of control | T/C (endpoint: mean survival time, dose: 25.0 mg/kg/injection, schedule: Q01DX005 (ip), vehicle: distilled water + Tween-80): 98 % of control | T/C (endpoint: mean survival time, dose: 50.0 mg/kg/injection, schedule: Q01DX005 (ip), vehicle: distilled water + Tween-80): 100 % of control | T/C (endpoint: mean survival time, dose: 100.0 mg/kg/injection, schedule: Q01DX005 (ip), vehicle: distilled water + Tween-80): 102 % of control

Nc1ncccc1[N+](=O)[O-]
T/C (endpoint: mean survival time, dose: 100.0 mg/kg/injection, schedule: Q01DX001 (ip), vehicle: saline with Tween-80): 97 % of control | T/C [3]: 105 % of control | T/C (endpoint: mean survival time, dose: 200.0 mg/kg/injection, schedule: Q01DX001 (ip), vehicle: saline with Tween-80): 96 % of control | T/C [4]: 102 % of control | T/C (endpoint: mean survival time, dose: 400.0 mg/kg/injection, schedule: Q01DX001 (ip), vehicle: saline with Tween-80): 98 % of control | T/C [5]: 105 % of control
